Results on 10 compounds are retold here after patent US10077241B2 (Janssen Pharmaceutica NV, priority 2014, dated 2018).

In experiment [1] the target is T1, TGR5 (STC1 cell line) (Mus musculus, UniProt Q80SS6).
T1 sequence (Q80SS6 1-329): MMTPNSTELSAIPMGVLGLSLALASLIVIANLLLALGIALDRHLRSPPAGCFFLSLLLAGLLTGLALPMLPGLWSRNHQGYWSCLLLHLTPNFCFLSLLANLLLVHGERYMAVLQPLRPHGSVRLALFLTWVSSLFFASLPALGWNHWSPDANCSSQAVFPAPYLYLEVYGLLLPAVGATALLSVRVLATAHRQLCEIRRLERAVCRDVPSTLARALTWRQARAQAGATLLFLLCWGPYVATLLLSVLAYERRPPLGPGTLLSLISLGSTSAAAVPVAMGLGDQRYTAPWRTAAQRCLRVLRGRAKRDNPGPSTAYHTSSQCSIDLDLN
In words: STC1 cAMP Agonist EC50 Determination.
Method: Cell stocks were maintained and grown in a sub-confluent state using standard cell culture procedures. The day before the experiment, the cells were harvested with non-enzymatic cell dissociation buffer and resuspended in complete growth media at 4E5 c/ml. […] The seeded plates were incubated overnight at 37° C.
On the day of the experiment, Assay Buffer containing: HBSS with Ca^2+and Mg^2+; 5 μM HEPES; 0.1% BSA; and, 0.5 μM IBMX was prepared. The growth medium was washed from the cell plates and replaced with 20 μL of Assay Buffer. […] The reaction was stopped by the addition of 20 μL 0.1% Formic Acid to all wells. Sixty minutes later 30 μL 3 M deuterated AMP was added to all wells (as a control for volume addition to the mass spec). Plates were mixed on a plate shaker for 1 min and centrifugated (5 min 3000 RPMs no brakes).
Plates were run on a 4000 QTrap triple-quadrapole Mass spectrometer in positive ion mode coupled with a Biocius RapidFire 300is. […] Two ions (cAMP and deuterated AMP were measured using Multiple Reaction Monitoring (MRM) in positive ion mode and the area under the curve (AUC) was determined for each of the ions.
The data from the Mass Spec/Rapid Plate AUC for cAMP and deuterated AMP were imported to an Excel worksheet. A Normalized signal (NS) was generated for each well=(cAMP AUC for the well/deut AMP AUC for the well)*average deut AMP AUC for the plate). nM cAMP was calculated for each well from the cAMP standard curves located on each plate by first calculating the slope and deriving the intercept (b).
EC50 values were determined from a 4-point fit (Hill equation) of a single 11-point compound dosing.

The target of experiment [2] is T2, TGR5 (NCI-H716 cell line) (Homo sapiens, UniProt Q8TDU6).
T2 sequence (Q8TDU6 1-330): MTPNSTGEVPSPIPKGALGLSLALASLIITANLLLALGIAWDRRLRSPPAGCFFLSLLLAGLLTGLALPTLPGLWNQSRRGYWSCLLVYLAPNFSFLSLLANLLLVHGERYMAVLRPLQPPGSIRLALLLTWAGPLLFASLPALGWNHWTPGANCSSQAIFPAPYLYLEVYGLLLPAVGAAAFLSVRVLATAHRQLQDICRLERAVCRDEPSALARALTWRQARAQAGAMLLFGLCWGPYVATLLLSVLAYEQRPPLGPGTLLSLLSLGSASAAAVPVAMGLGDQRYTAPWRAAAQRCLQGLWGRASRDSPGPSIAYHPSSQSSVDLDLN
Put plainly: NCI-H716 cAMP Agonist EC50 Determination.
Method: Cells were cultured in suspension using RPM containing: 10% HI FBS, and 1× Penn/Strep and were cryostored (1E7 cells/vial in 5% DMSO).
A Normalized signal (NS) is generated by the Envision for each well ((Read 1/Read 2)×10,000).
The data from the Envision were imported to an Excel worksheet. nM cAMP is calculated for each well from the cAMP standard curves located on each plate by first calculating the slope and deriving the intercept (b).
[formula] [formula] [formula] EC50 values were determined from a 4-point fit (Hill equation) of a single 11-point compound dosing.

Consider `COc1cc(C2(C)CCCc3nc(SCc4c(F)cc(-c5nnn[nH]5)cc4F)n(-c4ccc(F)cc4)c32)ccc1F` (centres unmarked) [Example 121, 2-((2,6-difluoro-4-(1H-tetrazol-5-yl)benzyl)thio)-7-(4-fluoro-3-methoxyphenyl)-1-(4-fluorophenyl)-7-methyl-4,5,6,7-tetrahydro-1H-benzo[d]imidazole], for which the figures for the EC50 in experiment [1] and in experiment [2] were 3.11 µM and more than 50 µM, respectively.

Turning to `COc1cc(C2(C)CCCc3nc(SCc4c(F)cc(C(=O)N5CCOCC5)cc4F)n(-c4ccc(F)cc4)c32)ccc1F` (centres unmarked) [Example 122, (3,5-difluoro-4-(((7-(4-fluoro-3-methoxyphenyl)-1-(4-fluorophenyl)-7-methyl-4,5,6,7-tetrahydro-1H-benzo[d]imidazol-2-yl)thio)methyl)phenyl) (morpholino)methanone], the EC50 (commonly the concentration needed to bring the measured effect to its halfway point) in experiment [1] amounted to 0.09 µM; in experiment [2], 18.8 µM.

For the compound `COc1cc(C2(C)CCCc3nc(SCc4c(F)cc(C(=O)NCCOCCOCCOCCO)cc4F)n(-c4ccc(F)cc4)c32)ccc1F` (centres unmarked) [Example 123, 3,5-difluoro-4-(((7-(4-fluoro-3-methoxyphenyl)-1-(4-fluorophenyl)-7-methyl-4,5,6,7-tetrahydro-1H-benzo[d]imidazol-2-yl)thio)methyl)-N-(2-(2-(2-(2-hydroxyethoxy)ethoxy)ethoxy)ethyl) benzamide], the concentration giving a half-maximal response (EC50) came to 0.05 µM in experiment [1] and 17 µM in experiment [2].

In the case of `COCCNC(=O)c1cc(F)c(CSc2nc3c(n2-c2ccc(F)cc2)C(C)(c2ccc(F)c(OC)c2)CCC3)c(F)c1` (centres unmarked) [Example 124, 3,5-difluoro-4-(((7-(4-fluoro-3-methoxyphenyl)-1-(4-fluorophenyl)-7-methyl-4,5,6,7-tetrahydro-1H-benzo[d]imidazol-2-yl)thio)methyl)-N-(2-methoxyethyl)benzamide], the values for the EC50 in experiment [1] and in experiment [2] were 0.8 µM and more than 50 µM, respectively.

Consider `COc1cc(C2(C=O)CCCc3nc(SCc4c(F)cccc4Cl)n(-c4ccc(F)cc4)c32)ccc1Cl` (centres unmarked) [Example 130, 4-(4-chloro-3-methoxyphenyl)-2-(2-chloro-6-fluorobenzylthio)-3-(4-fluorophenyl)-4,5,6,7-tetrahydro-3H-benzo[d]imidazole-4-carbaldehyde trifluoroacetic acid], for which the concentration for a half-maximal effect (EC50) in experiment [1] is 14.1 µM; in experiment [2], more than 50 µM.

For `COc1cc(C2OCCc3nc(SCc4c(F)cc(OCCOCCOCCCl)cc4F)n(-c4ccc(F)cc4)c32)ccc1Cl` (centres unmarked) [Example 133, 4-(4-chloro-3-methoxyphenyl)-2-((4-(2-(2-(2-chloroethoxy)ethoxy)ethoxy)-2,6-difluorobenzyl)thio)-3-(4-fluorophenyl)-3,4,6,7-tetrahydropyrano[3,4-d]imidazole], the results for the EC50 in experiment [1] and in experiment [2] were 6.07 µM and more than 50 µM, respectively.

For the compound `Cc1nc2ccc(C3OCCc4nc(SCc5c(F)cccc5Cl)n(-c5ccc(F)cc5)c43)cc2o1` (centres unmarked) [Example 135, 2-((2-chloro-6-fluorobenzyl)thio)-3-(4-fluorophenyl)-4-(2-methylbenzo[d]oxazol-6-yl)-3,4,6,7-tetrahydropyrano[3,4-d]imidazole], the EC50 in experiment [1] turned out to be 3.84 µM; in experiment [2] it was 11 µM.

For the compound `C=C1COC(c2ccc(OC)c(OC)c2)c2c1nc(SCc1c(F)cccc1Cl)n2-c1ccc(F)cc1` (centres unmarked) [Example 136, 2-((2-chloro-6-fluorobenzyl)thio)-4-(3,4-dimethoxyphenyl)-3-(4-fluorophenyl)-7-methylene-3,4,6,7-tetrahydropyrano[3,4-d]imidazole], the figures for the half-maximal effective concentration (EC50) in experiment [1] and in experiment [2] were 1.53 µM and more than 50 µM, respectively.

As to `C=C1COC(c2ccc(Cl)c(OC)c2)c2c1nc(SCc1c(F)cccc1Cl)n2-c1ccc(F)cc1` (centres unmarked) [Example 137, 4-(4-chloro-3-methoxyphenyl)-2-((2-chloro-6-fluorobenzyl)thio)-3-(4-fluorophenyl)-7-methylene-3,4,6,7-tetrahydropyrano[3,4-d]imidazole], the results for the EC50 in experiment [1] and in experiment [2] were 0.88 µM and more than 50 µM, respectively.

`C=C1COC(c2ccc(F)c(OC)c2)c2c1nc(SCc1c(F)cccc1Cl)n2-c1ccc(F)cc1` (centres unmarked) [Example 138, 4-(4-Fluoro-3-methoxyphenyl)-2-((2-chloro-6-fluorobenzyl)thio)-3-(4-fluorophenyl)-7-methylene-3,4,6,7-tetrahydropyrano[3,4-d]imidazole]: the figures for the 50% effective concentration (EC50) in experiment [1] and in experiment [2] were 3.26 µM and more than 50 µM, respectively.
